Experimental data as given in patent US20050079186A1, “Therapeutic vaccine peptide complex for preventing and treating disorders in mammals” (ORIDAN, Inc., priority 2001, published 2005).

Assays:
[1] = system: Leishmania; experiment: Parasitemy: direct exam of bone marrow smear and cultivation on NNN medium; assay type: in vivo, dog; set-up: key: − = absence; settings: vaccinated dogs, 2 months and 12 months after the infectious test
Source text: A parasitological exam was done from the sample taken directly from the candidate studied, a dog, for example.
A smear of a puncture of the bone marrow is made on a slide. This smear, fixed once by methanol, is stained with May-Grünwald-Geimsa and observed by an immersion microscope (x 1000).
Samples of the bone marrow are brought under cultivation in the biphase cultivation medium NNN (Novy and Mac Neal, 1904, 4. Infec. Dis., 1:1-30), of which RPMI 1640 supplemented with 20% decomplemented fetal calf serum constitutes the liquid phase. The blind subculturings were done every four to six days. The cultures are regularly observed in a photon microscope (×400) for 20 min.
The parasitemy was quantified as follows:
The infectious examination consists in intravenously injecting 106 treated promastigotes in metacyclic phase in the complement of a healthy dog and 5.106 peritoneal macrophages of a healthy dog, infected in vitro by the amastigotes.
The promastigotes and infected macrophages are diluted in sterile physiological serum for a final volume of 1.5 ml. This mixture is made just prior to injection.
To these analyses must be added the search for Leishmania by direct observation in a microscope and cultivation on NNN medium from bone marrow after the infectious test.

[2] = system: IgG2 specific to the peptides A16E and/or A16G; experiment: ELISA detection of IgG2 specific to the peptides A16E and A16G; assay type: in vivo, dog; settings: vaccinated dogs, ELISA towards the corresponding peptides; for SEROLOGY ELISA IgG2 (positive/negative): 2 months and 12 months after the infectious test; for SEROLOGY ELISA IgG2 (optical density): cut off 0.300 OD
Source text: Detection of immunoglobulins of the isotype IgG2 of dogs, specifically of the peptides A16E and A16G and their derivatives:
This detection is done by the ELISA method according to the microtitration technique of Kweider et al (J. Immunol. 1987, 138, 299) using a bonded anti IgG2. For this method, the peptides are biotinylated prior to coating on microplates.
(§1) The biological analyses consist of: • biochemical analyses: urea, creatine, transaminases • hematological analyses: count, formula • serology leishmaniasis: quantitative anti-Leishmania immunofluorescence, dosage by the ELISA method of IgG2s specific to the peptides A16E and/or A16G • cellular response tests: IDR test (IntraDermoReaction) done with leishmanines and also with A16E and A16G peptides, dosage of NO and lymphoblastic proliferation.

[3] = system: peripheral blood mononuclear cells (PBMC); experiment: Lymphocyte (lymphoblastic) proliferation test; assay type: cell-based, dog; settings: vaccinated dogs; 2 months after the infectious test
Method: Next, a test is done on the lymphocyte proliferation.
The peripheral blood mononuclear cells (PBMC) of dogs are separated on the Ficoll gradient (density 1.078) by centrifugation at 800 g for 20 mn at ambient temperature. These cells are brought under cultivation on a plate having 96 wells at a concentration of 2.10^5 cells per well in the presence of 2 μg per ml of Concanavalin A (Sigma), 5 μg per ml of ES P (excretion—secretion promastigotes) or […] of supernatants of culture harvested in the stationary phase of growth of promastigotes (SP) per well, and in the absence of any additive in a volume of […] of the medium RPMI 1640 containing 5% decomplemented fetal calf serum, 2 mM of L-glutamine, 100 U of penicillin per ml, […] of streptomycin per ml. The optimal antigen and mitogen concentrations have been determined in prior experiments. […] The cells are harvested over a filter and the incorporation of the radioactivity is determined by counting in a scintillating liquid (β-counter). […]
The lymphocytary proliferation has also been estimated by visual readings in a photon microscope (−: negative; +/−: slight proliferation; +: little proliferation less than 5 points per microscopic field; ++: mean proliferation greater than 5 points; +++: strong proliferation).

[4] = system: cell-mediated immunity of the Th1 type; experiment: Intra Dermo Reaction (IDR) test; assay type: in vivo, dog; settings: vaccinated dogs, 2 months after the infectious test; for IDR A16E: IDR done with peptide A16E; for IDR A16G: IDR done with peptide A16G; for IDR Leishmanines: read 48 h after intradermoinjection
Method: Evidence of the involvement of a cell-mediated immunity of the Th1 type:
Leishmanias of the promastigote forms are cultivated in the standard culture media. Parasites are harvested from the end of the exponential phase (6-7 days). The parasitic residue is washed three times by centrifugation (2500 g, […], 4° C.) in a PBS buffer.
After having verified the viability of the parasites using a vital stain (Trypan Blue), a suspension containing […] parasites per ml is inactivated in a PBS buffer containing 0.01% merthiolate (Pinelli et al., 1994, Infect. Immun., 62: 229-235). This constitutes the leishmanias for the intradermoreaction test (IDR).
Dogs are placed in lateral decubitus and a delicate and non-irritating shearing is done on the thoracic zone approximately 5 cm by 10 cm behind the elbow. Four circles 10 mm in diameter are marked using a felt-tip pen.
Into the center of the circles, 0.1 ml of solution is injected in an intradermo-injection. Two circles receive the solution of leishmanias and the 2 other circles receive the saline methiolated solution in the negative control. The reading of the Intra Dermo Reaction (IDR) is done 48 hours later using an allergologic gauge.
The test is considered positive if the mean of the two observed induration diameters is greater than or equal to 5 mm. The observation of an erythema without induration will be considered to be a negative test (Pinelli et al., 1994, Infect. Immun., 62: 229-235; Marty et al., 1994, Trans. Roy. Soc. Trop. Med. Hyg., 88, 658-659).
The IDRs can also be performed with a solution of peptides A16E and A16G or their derivatives and MDP, for example, in proportions of 10 μg of peptides for 20 μg of MDP.

[5] = system: Leishmania; experiment: Leishmaniasis serology: quantitative anti-Leishmania immunofluorescence; assay type: in vivo, dog; set-up: key: +: IF: Immunofluorescence (considered positive if the titer is ≧1/100); − = absence; settings: healthy dogs vaccinated with peptide(s) 50 μg + muramyl dipeptide 100 μg; analyses 2 months and 12 months after the infectious test
Source text: In parallel to the study of the specific activation of the T lymphocytes the Th1 type by intradermoreaction, dosage of the NO (NO is synthesized by monocytes activated by the cytokines of the T cells of the Th1 type) and lymphocyte proliferation, a serological monitoring by traditional immunofluorescence using strips coated with the promastigotes (serological reference method for canine leishmaniasis) is done.
as §1

Substance	Cultivation on NNN Medium [1]	PARASITEMY Direct Exam [1]	SEROLOGY ELISA IgG2 (positive/negative) [2]	SEROLOGY ELISA IgG2 (optical density) [2]	Lymphoblastic Proliferation Test, reading in a photon microscope [3]	IDR A16E [4]	IDR A16G [4]	IDR Leishmanines [4]	SEROLOGY IF Quantitative [5]
A-A-R-S-A-R-S-R-E-G-Y-S-L-T-D-E [A16E, 16 amino acid peptide specific to Leishmania]	−	−	+ (ELISA: Cut off = 0.300 OD (optical density))	0.700 OD	+ (little proliferation less than 5 points per microscopic field)	+ (The Intra Dermo Reaction test is considered positive (+) if the induration is ≧5 mm 48 h. after intradermoinjection)	Limit	+ (The Intra Dermo Reaction test is considered positive (+) if the induration is ≧5 mm 48 h. after intradermoinjection)	−
A-A-S-S-T-P-S-P-G-S-G-C-E-V-D-G [A16G, 16 amino acid peptide specific to Leishmania]	−	−	+ (ELISA: Cut off = 0.300 OD (optical density))	0.520 OD	++ (mean proliferation greater than 5 points)	Limit	+ (The Intra Dermo Reaction test is considered positive (+) if the induration is ≧5 mm 48 h. after intradermoinjection)	+ (The Intra Dermo Reaction test is considered positive (+) if the induration is ≧5 mm 48 h. after intradermoinjection)	−
